The record followed here is patent US20090163413A1, “DENTAL PRODUCTS COMPRISING BONE GROWTH ENHANCING PEPTIDE” (Acologix., Inc., priority 2000, published 2009).

This assay deals with calvaria from 4-days-old mice. As to the kind of experiment: Fetal mouse calvarial assay (mouse calvarial organ culture, histomorphometrical analysis of new bone area). Particulars: assay terminated at day 7, FGF-1 as positive control. In kind it is cell-based. Here is the method: FGF-1 was purchased from Peprotech Inc. (Rocky Hill, N.J.). RGD-1, 2, 3, 4, 5 and 6 (referred to here as D-00001, D-00002, D-00003, D-00004, D-00005 and D-00006) were provided by Dr. Nomizu (Hokkaido University, Japan).
Pregnant ICR mice were purchased from SLC Japan Co. Ltd. (Shizuoka, Japan).
Mouse calvarial organ culture was performed as described in Mundy G et al. Science 286: 1946-1949, 1999 and Traianedes K et al. Endocrinology 139: 3178-3184, 1998. The calvaria from 4-days-old mice were excised and cut in half along the sagittal suture. Each half of the calvaria was placed on a stainless steel grid in a 12-well tissue culture dish (Asahi Glass Techno Corp., Funabashi, Japan). Each well contained 1.5 ml of BGj medium (Sigma, St. Louis, Mo.) supplemented with 0.1% bovine serum albumin (Sigma) and each compound. FGF-1 was used as a positive control as described by Mundy et al. The medium was changed at day 1 and 4, and the assay was terminated at day 7.
Calvaria was fixed with 10% neutral-buffered formalin, decalcified with 4.13% EDTA and embedded in paraffin. […] sections were made and stained with hematoxylin and eosin. New bone area was measured using Image-Pro Plus (Media Cybernetics, Silver Spring, Md.).
The six peptides of Example 1 were tested for their ability to enhance bone growth with the tests being carried out as described above in Example 2.

No end group written: not given here.

For the sequence “ERGDNDISPFSGDGQ (ERGDNDISPFSGDGQ-NH2) [D-00004]”, the “ability to enhance bone growth (new bone area)” value was “best results”.
Take TDLQERGDNDISPFSGDGQPFKD [D-00006]: the “ability to enhance bone growth (new bone area)” value was “best results”.
